Test results reported in patent US11976062B2, “Benzisoxazole compound” (OSAKA UNIVERSITY, priority 2018, dated 2024).
pIC50: −log10 of the molar value.

How the values were obtained:
[1] = test system: α-SMA expression induced by TGFβ2 in cardiac fibroblasts; experiment: Fibrosis inhibition evaluation 2: immunofluorescent staining of α-SMA in cardiac fibroblasts; format: cell-based, rats; conditions: 10 μM, TGFβ2 2 ng/ml, 48 hours, FIG. 8
Procedure: In the same manner as in Test Example 5, dermal fibroblasts were isolated from mice, and sterilized cover glass (diameter: 12 mm) was placed in a 12-well plate. On the cover glass, 2.5×10^5 cells were seeded and grown. After 24 hours, the medium was replaced with a medium free of fetal bovine serum, and the cells were cultured for another 24 hours. Separately, cardiac fibroblasts were isolated from 1 to 2-day-old rats and treated in the same manner as for the dermal fibroblasts. Thereafter, 10 ng/ml TGFβ1 was added to the dermal fibroblasts, and 2 ng/ml TGFβ2 was added to the cardiac fibroblasts, followed by culturing the cells for 48 hours. At the same time as TGFβ was added, 10 μM of a test compound (compound 011), 10 μM of Pyr 2 (conventional inhibitor), or DMSO (solvent control) was also added. Separately, cultured cells to which TGFβ-free phosphate buffered saline (PBS) was added were also prepared. […] After blocking with 1% bovine serum albumin, α-SMA was detected using anti-α-SMA antibody (Sigma) as the primary antibody and anti-mouse IgG antibody (Molecular Probes) fused with Alexa 488 as the secondary antibody, and an image was acquired using a fluorescence microscope (Keyence) with a 20× objective lens. The average fluorescence brightness (fluorescence intensity/pixel) per cell area was calculated and analyzed using Image J software.

TRPC3 channel = target: T1, TRPC3 channel (Homo sapiens, UniProt Q13507); experiment: Calcium assay using HEK293 cells transiently expressing TRPC3 channel, carbachol activation (Fura-2); format: cell-based
T1 construct: expressed in transfected cells; host or cells: HEK293
T1 sequence (Q13507 1-921): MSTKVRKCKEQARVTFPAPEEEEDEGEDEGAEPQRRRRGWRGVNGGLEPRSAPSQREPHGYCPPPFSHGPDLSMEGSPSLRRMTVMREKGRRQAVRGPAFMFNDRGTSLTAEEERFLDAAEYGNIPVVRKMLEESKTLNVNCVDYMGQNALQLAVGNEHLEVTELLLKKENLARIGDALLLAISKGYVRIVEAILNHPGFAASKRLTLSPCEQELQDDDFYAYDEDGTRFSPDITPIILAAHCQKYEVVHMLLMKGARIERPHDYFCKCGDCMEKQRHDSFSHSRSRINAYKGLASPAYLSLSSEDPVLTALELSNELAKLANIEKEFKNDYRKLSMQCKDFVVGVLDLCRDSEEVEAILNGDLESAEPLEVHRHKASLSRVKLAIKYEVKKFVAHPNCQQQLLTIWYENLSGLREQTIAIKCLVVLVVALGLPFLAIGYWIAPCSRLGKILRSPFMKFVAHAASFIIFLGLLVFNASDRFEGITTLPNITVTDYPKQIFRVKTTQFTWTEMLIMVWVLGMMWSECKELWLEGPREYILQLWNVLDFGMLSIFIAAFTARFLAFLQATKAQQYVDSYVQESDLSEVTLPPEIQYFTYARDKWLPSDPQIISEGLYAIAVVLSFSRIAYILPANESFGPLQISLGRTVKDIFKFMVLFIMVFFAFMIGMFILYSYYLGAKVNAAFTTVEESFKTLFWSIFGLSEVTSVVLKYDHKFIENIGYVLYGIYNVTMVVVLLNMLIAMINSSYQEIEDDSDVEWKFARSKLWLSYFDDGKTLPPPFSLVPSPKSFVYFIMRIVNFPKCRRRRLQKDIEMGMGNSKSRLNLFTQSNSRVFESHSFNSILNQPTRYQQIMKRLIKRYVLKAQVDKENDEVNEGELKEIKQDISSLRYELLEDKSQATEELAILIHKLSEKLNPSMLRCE
Procedure: A TRPC6 gene was introduced into HEK293 cells (cells derived from human fetal kidney) by lipofection, and the TRPC6 channel was expressed on the cell membrane. Specifically, the plasmid DNA of TRPC6 (pCI-neo; Promega Corporation) was introduced into HEK293 cells using a lipofection reagent, and then cultured at 37° C. for 24 to 48 hours to express the TRPC6 channel on the cell membrane. In the same manner, HEK293 cells into which the TRPC3 gene was introduced were cultured, and the TRPC3 channel was expressed on the cell membrane.
The cultured cells were peeled off with trypsin and seeded on a cover glass again, followed by culturing the cells at 37° C. for 3 hours again. A Fura-2 AM calcium indicator was added to the medium, and the cells were cultured at 37° C. for 30 minutes to allow the cells to incorporate the indicator. For the extracellular solution, a Ca^2+-containing solution and a Ca^2+-free solution were prepared. • Ca^2+-containing solution: 2 mM CaCl2, 132 mM NaCl, 4 mM KCl, 1 mM MgCl2, 5 mM glucose, 5 mM HEPES (pH 7.4) • Ca^2+-free solution: 132 mM NaCl, 4 mM KCl, 1 mM MgCl2, 5 mM glucose, 5 mM HEPES (pH 7.4) […]

Ca2+ concentration in the cells reached after addition of carbachol (TRPC3 channel; TRPC3, FIG. 2, from about 100 nM, control (DMSO) about 350 nM): about 180 nM | pIC50 (TRPC3 channel; TRPC3-expressing HEK293 cells, carbachol 100 μM, from concentration-response curves, read-out: IC50 for inhibition of the TRPC3 channel): 6.15
Compound: O=C(O)c1cnc(N2CCN(c3noc4cccc(C(F)(F)F)c34)CC2)c(Cl)c1 [Compound 011, 5-chloro-6-(4-(4-(trifluoromethyl)benzo[d]isoxazol-3-yl)piperazin-1-yl) nicotinic acid]
expression of α-SMA induced by TGFβ (immunofluorescent staining) [1]: almost completely suppressed the expression of α-SMA
